The data set is described as follows: solvent given as SMILES.

“And” between values parts separate entries of the source, which are not always exact repeats. Identical values can stand only once.

Regarding `CC[n+]1c(-c2ccccc2)c2cc(-n3cccc3)ccc2c2ccc(N)cc21`, the absorption maximum (in O) was 462 nm.

Under “in ClC(Cl)Cl”, `CC1=CC(C)=[N+]2C1=C(c1ccc(I)cc1)c1c(C)cc(C)n1[B-]2(OCc1ccccc1)OCc1ccccc1` registered an absorption maximum of 506 nm.

`c1ccc(-c2nc(-c3ccccc3)c(N(c3ccccc3)c3ccccc3)[se]2)cc1` showed an absorption maximum (in ClC(Cl)Cl) of 384 nm.

The compound `C[n+]1ccc(/C=C/c2ccc(N(c3ccccc3)c3ccc(/C=C/c4cc[n+](C)cc4)cc3)cc2)cc1` gave an absorption maximum (in ClCCl) of 402 nm, an absorption maximum (in O) of 509 nm and an absorption maximum (in OCC(O)CO) of 496 nm.

Under “in CC#N”, `COc1ccc(/C=C2\OC(=O)c3ccccc32)cc1` yielded an absorption maximum of 336 nm.

Take `COC(C)CC1=N/C(=C\c2cccc(N(C)C)c2)C(=O)N1C` (stereo not given): the absorption maximum is, setting by setting: (in C1CCOC1) 355 nm; (in CC#N) 355 nm; (in CCCCCC) 354 nm.

Regarding `COC(=O)/C(C#N)=C/c1cn(-c2ccccc2)nc1-c1ccc([N+](=O)[O-])cc1`, the absorption maximum by setting is: (in C1CCOC1) 333 nm; (in C1COCCO1) 333 nm; (in CCO) 335 nm; (in CCOC(C)=O) 330 nm; (in CN(C)C=O) 330 nm; (in CO) 330 nm. The absorption maximum is given as 330 nm (in CS(C)=O), 347 nm (in Cc1ccccc1) and 339 nm (in ClC(Cl)Cl).

Turning to `N#C/C(=C\c1cn(-c2ccccc2)nc1-c1ccccc1)c1nc2ccccc2s1`, the absorption maximum worked out at 381 nm (in C1CCOC1); 381 nm (in C1COCCO1); 380 nm (in CCO); 380 nm (in CCOC(C)=O); 388 nm (in CN(C)C=O); 377 nm (in CO). In addition, the absorption maximum (in CS(C)=O) was determined as 382 nm, the absorption maximum (in Cc1ccccc1) was determined as 387 nm, the absorption maximum (in ClC(Cl)Cl) is listed as 383 nm and the absorption maximum (in ClCCl) came out at 380 nm.

As to `CC[n+]1c(/C=C/c2c([O-])ccc3ccc(=O)oc23)sc2ccccc21`, the absorption maximum is, setting by setting: (in C1CCOC1) 607.14 nm; (in CC#N) 579.15 nm; (in CC(C)=O) 590.56 nm; (in CO) 519.07 nm; (in CS(C)=O) 581.28 nm; (in Cc1ccccc1) 623.57 nm. Moreover, the absorption maximum by setting is: (in ClC(Cl)Cl) 593.91 nm; (in ClCCl) 597.56 nm; (in O) 492.76 nm.

For the compound `C(=C\c1c2ccccc2cc2ccccc12)/c1cccc2ccccc12`, the absorption maximum was found to be 386 nm (in CC1CCCCC1) and 386 nm (in CC#N).

Take `CCOC(=O)c1c(-c2cc3ccc(OC)cc3oc2=O)nn(-c2ccccc2)c1C(=O)OCC`: the absorption maximum (in ClCCl) worked out at 337 nm.

Take `O=P1(c2ccccc2)C(c2cc(C(F)(F)F)cc(C(F)(F)F)c2)=Cc2c3ccc4cccc5ccc(c6cc(-c7ccccc7)n1c26)c3c45` (stereo not given): the absorption maximum reads like this: (in C1CCCCC1) 451 nm; (in C1CCOC1) 451 nm; (in C1COCCO1) 448 nm; (in CC#N) 445 nm; (in CC(C)=O) 446 nm; (in CO) 444 nm. This compound showed an absorption maximum (in Cc1ccccc1) of 453 nm, an absorption maximum (in ClC(Cl)Cl) of 452 nm and an absorption maximum (in ClCCl) of 450 nm.

In the case of `CC1(C)C(=O)C=Cc2ccc(N3CCC3)cc21`, the absorption maximum (in O) is on record as 387 nm.

In turn, `C=Cc1cc2ccc(OC(=O)c3ccccc3)cc2oc1=O` returned an absorption maximum (in CC#N) of 328 nm.

Consider `CCOC(=O)COc1ccc(/C=C/c2cc(C)c3n2[B-](F)(F)[N+]2=C(c4[nH]c(C)cc4C)c4ccccc4C2=C3)cc1`, for which the absorption maximum is, setting by setting: (in C1CCOC1) 679 nm; (in CC#N) 670 nm; (in CCCCCC) 679 nm; (in CO) 671 nm; (in Cc1ccccc1) 678 nm; (in ClCCl) 680 nm.

`F[Si-](F)(c1ccccc1)(c1c2ccccc2cc2ccccc12)c1c2ccccc2cc2ccccc12` came in with an absorption maximum (in C1CCOC1) of 391 nm.

In the case of `F[B-]1(F)n2c(-c3cccs3)cc(-c3cccs3)c2N=C2C(c3cccs3)=CC(c3cccs3)=[N+]21`, the absorption maximum runs as follows: (in C1CCOC1) 740 nm; (in CC#N) 733 nm; (in CS(C)=O) 752 nm; (in Cc1ccccc1) 743 nm; (in ClCCl) 740 nm and 742 nm.

With `c1ccc(-c2ccccc2)cc1`, the absorption maximum was 254.13 nm (in C1CCCCC1) and 246 nm (in C1COCCO1).

Regarding `Cc1cc(C)c(B(c2ccc3c(c2)c2cc(B(c4c(C)cc(C)cc4C)c4c(C)cc(C)cc4C)ccc2n3-c2ccc(C(=C(c3ccccc3)c3ccccc3)c3ccccc3)cc2)c2c(C)cc(C)cc2C)c(C)c1`, the absorption maximum (in C1CCOC1) came to 358 nm.

`c1ccc(C2=C(c3ccccc3)c3cccc4c3c(cc3nc5c(-c6ccccc6)ccc(-c6ccccc6)c5nc34)O2)cc1` came in with an absorption maximum (in ClCCl) of 503 nm.

As to `O=C(O)c1c2ccccc2nc2ccccc12`, the absorption maximum reads like this: (in C1CCOC1) 360 nm; (in C1COCCO1) 362 nm; (in CC#N) 354 nm; (in CCCCCO) 370 nm; (in CCCCO) 370 nm; (in CCCO) 368 nm. In addition, the absorption maximum (in CCO) was 369 nm; the absorption maximum (in CO) is 356 nm; the absorption maximum (in COCCOC) stood at 360 nm; the absorption maximum (in ClC(Cl)Cl) came out at 362 nm; the absorption maximum (in ClCCl) is reported as 362 nm; the absorption maximum (in OCCO) is reported as 356 nm.

Regarding `N#Cc1ccc(C2=Cc3cc4ccccc4cc3P2(=O)c2ccccc2)cc1` (stereo not given), the absorption maximum (in ClCCl) is 391 nm.

On to `CC[n+]1nc2cc3c4c(c2c2cc(F)ccc21)CCCN4CCC3`, for which the absorption maximum (in O) came out at 494 nm.

The compound `Oc1cccc(-c2nc(-c3ccccc3)c(-c3ccccc3)[nH]2)c1` registered an absorption maximum (in CO) of 300 nm.

In turn, `COc1cc(C2=C(c3ccc(C(C)(C)C)cc3)C(c3ccc(C(C)(C)C)cc3)=[N+]3C2=Nc2c(-c4cc(OC)c(OC)c(OC)c4)c(-c4ccc(C(C)(C)C)cc4)c(-c4ccc(C(C)(C)C)cc4)n2[B-]3(F)F)cc(OC)c1OC` returned an absorption maximum (in Cc1ccccc1) of 675 nm.

`F[B-]1(F)N(c2ccccc2)c2cccc3ccc4ccc[n+]1c4c23` yielded an absorption maximum (in ClCCl) of 465 nm.

On to `O=c1oc2cccc3c4cccc5ccc6c7cc(F)ccc7c1c(c23)c6c54`, for which the absorption maximum (in C1CCOC1) is recorded as 411 nm.

Regarding `C1=C(c2ccc(-c3cccs3)s2)CCCC1`, the absorption maximum runs as follows: (in C1CCOC1) 341 nm; (in CC#N) 342 nm; (in CCCCCC) 341 nm; (in CCO) 344 nm; (in OCCOCCO) 345 nm; (in c1ccncc1) 345 nm.

As to `CC(C)[Si](C#Cc1c2ccccc2c(C#C[Si](C(C)C)(C(C)C)C(C)C)c2nc3cc4c(cc3nc12)C1c2ccccc2C4c2ccccc21)(C(C)C)C(C)C`, the absorption maximum is, setting by setting: (in CCCCCC) 558 nm; (in ClCCl) 562 nm.

Under “in ClCCl”, `CCN(CC)c1ccc2c(c1)oc(=O)c1cc3c(-c4ccccc4)nn(-c4ccccc4)c3nc12` returned an absorption maximum of 359 nm.

The values are drawn from the Deep4Chem optical property database.
